Data set [1] in a line: Critical aggregation concentration (CAC) of surfactants, dynamic light scattering. In kind it is physicochemical. The protocol:
In a further embodiment, the surfactant peptide is added to the mammalian membrane protein at a concentration that is based on the CAC of the surfactant peptide. The CAC of surfactants can be determined experimentally using known dynamic light scattering methods. A minimal amount of sample can be used in this method. Each CAC determination takes a few hours, therefore it is possible to determine the CAC for a large number of peptide detergents in a few weeks. It is known that the lower the CAC, the more hydrophobic the detergents and the stronger the aggregation in water. The CAC for several peptide surfactants in water is shown below in Table 1.
Similar to common surfactants, these peptide surfactants have defined critical aggregation concentrations (CACs) in the sub-millimolar to millimolar range, depending on the hydrophobicity of the tails and the ionic concentration. For example, in water, A6D has a CAC of ≈1.6 mM, and A6K has a CAC of 1.5 mM; however, in phosphate-based saline (PBS) (10 mM sodium phosphate/150 mM NaCl, pH 7.4), A6D has a CAC of 0.25 mM and A6K has a CAC of ≈0.23 mM. This difference is due the charge screening effect in accordance with the Derjaguin-Landau-Verwey-Overbeck (DVLO) theory, which postulates that a critical coagulation concentration of counterions is required to allow assembly and that this concentration will be inversely proportional to the valence of the counterion raised to the sixth power (28). The peptide surfactant supramolecular structure is similar to that of phospholipids; namely, the formation of a polar interface sequesters the hydrophobic tails from water.

The subject of data set [2] is phycobilisomes. As to the kind of experiment: Stabilization of phycobilisomes, room temperature fluorescent spectroscopy (666 nm). It is filed as biochemical, Porphridium Cruentum. The conditions noted are these: phycobilisomes after buffer change to 0.4M PBS, excitation 540 nm, room temperature. As to the method:
Methods: Native phycobilisomes were isolated from Porphridium Cruentum, purified by Martek Biosciences and received in stabilizing buffer (0.75 M PBS, pH ˜7). Peptergents (ac-A6D and ac-A6K—NH2) were used as supplied (CPC Scientific) without further purification. Briefly, phycobilisomes (1 ng/mL) were mixed with peptergent-0.75M PBS solutions (0, 1, 2, 4 and 8 critical aggregation concentrations (CAC)). Phycobilisome-peptide solutions were dialyzed (3400 MWCO) against PBS solutions of various molarity (0.6-0.01M) for 18 h, in the dark. Room temperature fluorescent spectroscopy of these solutions was conducted using an excitation wavelength of 540 nm and emitted fluorescence (550-700 nm) were collected. UV-Vis spectra were obtained to confirm solution concentrations for all acquired fluorescent data.

Data set [3] relates to photosystem I (PSI) protein complex. The conditions noted are these: cited from earlier work; for Stabilization of the PSI complex (≈735-nm fluorescence maximum, words): surfactant added before drying the sample, emission at 77 K.
The target of data set [4] is T1, GPCR bovine rhodopsin (Bos taurus, UniProt P02699).
T1 construct: Bovine retinae rod outer segment membranes were prepared (40, 41) and urea-stripped (42); tissue J. A. Lawson (Lincoln, Nebr.); host or cells: bovine retinae, rod outer segments
As to the kind of experiment: Thermal stability of rhodopsin in peptide solution in the presence of surfactant (decay of A500). In kind it is biochemical. As to the method: Solubilization of Rhodopsin in Different Surfactants. Bovine retinae rod outer segment membranes were prepared (40, 41) and urea-stripped (42). Samples of the membranes containing 1.4 nmol of rhodopsin were solubilized in 0.5 ml of PBS containing 0.5 mM phenylmethylsulfonyl fluoride with 1% DM or 2% (/vol) OG. The suspensions were centrifuged (100,000×g for 15 min), and the supernatants were kept in the dark at 4° C.
Thermal Stability Study of Rhodopsin in Peptide Solution in the Presence of the Surfactant. Rhodopsin solubilized (32-34) in PBS containing 2% (vol/vol) OG was added to the same volume of PBS containing 0, […], 5.0, or 7.5 mM A6D, 1.8% PEG, or 5.4 mM RAD8. In another experiment, rhodopsin solubilized in PBS containing 1% (19.8 mM) DM was added to the same volume of PBS containing 5.0 mM A6D or 0, 5.0, or 19.8 mM DM. A decrease in A500 was recorded every 5 min up to 110 min at 40° C. for the samples containing OG and at 40-55° C. for those containing DM (FIGS. 2 and 3). UV-visible absorption spectroscopy was performed with a Lambda 6 spectrophotometer (Perkin-Elmer, Wellesley, Mass.) equipped with a temperature regulated cuvette holder with a slit width of 2 nm, 480 nm/min scan speed, and a response time of 1 second. The A500 remaining at different time points was expressed as the percentage of absorbance present at the start of the experiment. The half-life of rhodopsin in each solution was calculated by using a single exponential curve fit. The plot obtained from the percentage of absorbance at different time points was fitted to a single exponential curve with two parameters (Eq. 1).
The plot obtained from the A500 values at different time points was directly fitted to a single exponential curve with three parameters (Eq. 2) when the plot from the percentage of absorbance could not be fitted to Eq. 1.
The half-life (t1/2) was calculated using Eq. 3.

Data set [5] addresses T1, GPCR bovine rhodopsin. The data set can be described thus: Thermal stability of rhodopsin in peptide solution in the absence of OG (decay of A500). It is filed as biochemical. The settings on record: control samples containing only OG, without A6D. The protocol: Thermal Stability of Rhodopsin in Peptide Solution in the Absence of OG. Rhodopsin solubilized in PBS containing 2% (vol/vol) OG was added to the same volume of PBS containing 2.5 mM A6D. […] Then, 0.5 ml of the mixture was poured into the tube. The tube was covered with 10 kDa of cutoff membrane and dialyzed against 4.5 ml of PBS containing 1.25 mM A6D for 40 h in the dark at 4° C. A resultant sample decrease in A500 was recorded every 5 min for 120 min at 40° C. A decrease in A500 of the predialysis mixture containing 1% OG and 1.25 mM A6D was also monitored as a control (FIG. 4A).

In data set [6] the target is T2, delipidated bovine rhodopsin (Bos taurus, UniProt P02699).
T2 construct: Bovine retinae rod outer segment membranes were prepared (40, 41) and urea-stripped (42); tissue J. A. Lawson (Lincoln, Nebr.); host or cells: bovine retinae, rod outer segments
The data set can be described thus: Thermal stability of delipidated rhodopsin in the absence of phospholipids (decay of A500). In kind it is biochemical. As to the method:
Removal of Phospholipids from Rhodopsin. Samples of the membranes containing 4.7 nmol of rhodopsin were solubilized in 1,000 ul of PBS containing 2% (vol/vol) OG. The suspension was mixed with 250 ul (settled beads, concentration of 50%) of rhodopsin-1D4 Sepharose and rotated for 3 h. The 1D4 Sepharose beads were then packed into a minicolumn (7-mm inner diameter) and washed with PBS containing 1% OG by using 500 bed volumes (total of 62.5 ml). The rhodopsin was then eluted with 1.5 ml of PBS containing 1% OG and the C-terminal nanopeptide.
Thermal Stability Study of Rhodopsin in Peptide Solution in the Absence of Phospholipids. The delipidated rhodopsin solution was added to the same volume of 1% OG in PBS containing 0, 3.75, or 7.5 mM A6D, or 1.8% PEG (FIG. 4B). In another experiment, the delipidated rhodopsin solutions were poured into tubes. Each tube was covered with 10 kDa of cutoff membrane and dialyzed against 4.5 ml of PBS or PBS containing 1.25 mM A6D or 1% OG (FIG. 4C). For all samples, a decrease in A500 was recorded every 5 min, up to 120 min at 40° C.

The conditions of data set [7]: non-peptide surfactant, medium not stated; cited from earlier work.
Data set [8] deals with T3, glycerol 3-phosphate dehydrogenase (Escherichia coli, UniProt P13035).
T3 sequence (P13035 1-501): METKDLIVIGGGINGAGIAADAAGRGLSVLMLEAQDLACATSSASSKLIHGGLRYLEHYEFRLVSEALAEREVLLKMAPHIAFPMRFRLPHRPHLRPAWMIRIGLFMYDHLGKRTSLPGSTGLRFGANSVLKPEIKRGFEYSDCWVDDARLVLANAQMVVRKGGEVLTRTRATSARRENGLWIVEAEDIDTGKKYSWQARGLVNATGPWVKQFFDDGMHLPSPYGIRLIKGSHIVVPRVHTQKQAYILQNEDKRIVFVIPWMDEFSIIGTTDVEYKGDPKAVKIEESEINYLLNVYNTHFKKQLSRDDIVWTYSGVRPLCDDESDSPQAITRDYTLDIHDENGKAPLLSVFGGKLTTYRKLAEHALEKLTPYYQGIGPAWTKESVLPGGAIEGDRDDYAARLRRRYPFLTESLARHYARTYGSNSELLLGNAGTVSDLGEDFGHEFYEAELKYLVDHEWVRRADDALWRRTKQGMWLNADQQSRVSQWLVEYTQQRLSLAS
The conditions noted are these: in solution, assayed through protein gel electrophoresis; cited from earlier work.

Read-outs that look alike come from different tables or passages of the source.

T1 sequence (P02699 whole entry): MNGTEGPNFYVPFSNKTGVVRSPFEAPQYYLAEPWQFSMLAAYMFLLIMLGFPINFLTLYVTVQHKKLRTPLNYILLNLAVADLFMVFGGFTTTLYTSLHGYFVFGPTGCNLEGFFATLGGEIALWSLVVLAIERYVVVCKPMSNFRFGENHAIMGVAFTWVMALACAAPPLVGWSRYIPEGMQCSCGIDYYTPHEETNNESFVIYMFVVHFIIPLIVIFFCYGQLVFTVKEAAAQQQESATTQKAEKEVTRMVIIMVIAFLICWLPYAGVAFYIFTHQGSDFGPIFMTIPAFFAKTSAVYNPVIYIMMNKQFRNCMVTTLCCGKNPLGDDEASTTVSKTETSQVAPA
T2 sequence (P02699 whole entry): as above

Consider AAAAAAK [A6K], for which the CAC entry was “≈ 0.23 mM” in data set [1] (in phosphate-based saline (PBS) (10 mM sodium phosphate/150 mM NaCl, pH 7.4)) and approximately 1.5 mM in data set [1] (in water). Moreover, the “666 nm fluorescence intensity” value in data set [2] is recorded as 0.7 ×10^5 cps. For the same compound, in data set [3] (room temperature, in the presence of the peptide surfactant), the “Time the PSI complex is stable in a dried form” value is on record as “at least 3 weeks”. The “Stabilization of the PSI complex (≈735-nm fluorescence maximum, words)” value (shortened to “Stabilization of the PSI complex”) in data set [3] is listed as “significantly stabilized the PSI complex”.

Take `CCCCCCCCO[C@@H]1O[C@H](CO)[C@@H](O)[C@H](O)[C@H]1O` [OG, octyl-D-glucoside]: the Half-life of rhodopsin in data set [4] (rhodopsin/phospholipids in 1% OG (PBS), 40° C.) was 71 min and ≈ 71 min; in data set [5] (40° C.) it was “≈ 101 min”; in data set [5] (50° C.), “≈ 5 min”; in data set [6] (delipidated rhodopsin dialyzed against 1% OG (control), 40° C.), 27 min; in data set [6] (delipidated rhodopsin, 1% OG, 40° C. (A6D concentration series)), 23 min. Moreover, in data set [6] (OG added to delipidated rhodopsin, 40° C.), the “Stabilization effect on delipidated rhodopsin” value was “did not have a significant stabilization effect”. For the same compound, the CAC result in data set [7] was “≈ 5 mM”. Moreover, in data set [3], the “Stabilization of the PSI complex” value is “did not stabilize”.

Turning to `CCCCCCCCCCCCO[C@@H]1O[C@H](CO)[C@@H](O[C@H]2O[C@H](CO)[C@@H](O)[C@H](O)[C@H]2O)[C@H](O)[C@H]1O` [DM, n-dodecyl-B-D-maltoside], the Half-life of rhodopsin in data set [4] (12.3 mM DM, 50° C.) is 96 min; in data set [4] (rhodopsin/phospholipid, 13.3 mM DM (89×CAC)), “≈ 93 min”; in data set [4] (rhodopsin/phospholipids, 9.8 mM DM, 50° C.) it was 102 min and ≈ 102 min; in data set [4] (rhodopsin/phospholipids, 19.6 mM DM, 50° C.), 96 min and ≈ 93 min. In data set [7], the CAC result is on record as “≈ 0.15 mM”. In addition, the “Stabilization of the PSI complex” value in data set [3] is given as “did not stabilize”.

VVVVVVD [V6D] gave a CAC in data set [1] (in water) of approximately 0.7 mM. Further, the “Stabilization of the PSI complex” value in data set [3] is given as “also stabilized the complex, but to a lesser extent”. Besides, in data set [8], the “Solubilized membrane protein function” value is reported as “retaining its functional enzymatic activities”.

“Ac-n-RADARADA-c-NH2 (Ac-RADARADA-NH2) [RAD8, octapeptide similar in size to A6D without significant surfactant properties]”: in data set [4] (rhodopsin/phospholipid, 2.8 mM RAD8/1% OG, 40° C.), the Half-life of rhodopsin was 99 min and ≈ 99 min.

VVVVVVDD [V6D2] gave a CAC in data set [1] (in water) of 1.1 mM.

(Values after patent US20090069547A1, “STABILIZATION OF MAMMALIAN MEMBRANE PROTEINS BY SHORT SURFACTANT PEPTIDES” (Massachusetts Institute of Technology, priority 2007, published 2009).)
